In US20240382465A1, “AROMATIC ACETYLENE DERIVATIVE, AND PREPARATION METHOD THEREFOR AND USE THEREOF” (priority 2021, published 2024):
In brackets after ≈: the same amount, converted by molar mass. Where two headings read alike, the source gives them in different places.

What was measured:
[1] = molecular target: recombinant Pseudomonas aeruginosa LpxC (Pseudomonas aeruginosa (strain ATCC 15692 / DSM 22644 / CIP 104116 / JCM 14847 / LMG 12228 / 1C / PRS 101 / PAO1), UniProt P47205); assay: Inhibition of LpxC enzymatic activity (fluorescamine assay); format: biochemical
Procedure: The degree of inhibition of the enzymatic activity of recombinant Pseudomonas aeruginosa LpxC by the compounds of the present disclosure under in vitro conditions was determined using the following method.
The experimental procedure is briefly described as follows: The test compound was first dissolved in DMSO to prepare a 10 mM stock solution. The reaction was carried out in a 96-well microplate. First, 20 μL of recombinant Pseudomonas aeruginosa LpxC (purchased from Signalway Antibody, product number AP74647-2) was added to each well, with a final concentration of 5 nM. 5 μL of the compound to be tested was then added, and the compound was diluted 4 times to 8 concentration points with a concentration range of 0.61-10,000 nM. 5 μL of LpxC substrate UDP-3-O—(R-3-hydroxydecanoyl)-GlcNAc (purchased from Biosynth Carbosynth, product number: mu75071) was added, with a final concentration of the substrate of 10 μM. The plate was incubated at 25° C. for 120 minutes. Then 20 μL of 2.0 mg/mL fluorescamine (purchased from sigmaaldrich, product number: F9015, solvent: 1:1 dimethylformamide/acetonitrile) was added to the reaction system, and mixed well for 10 minutes of reaction. Finally, 50 μL of 200 mM sodium phosphate buffer (pH 8.0) was added to terminate the reaction. Reading was carried out using a microplate reader (BMG), and the excitation and emission wavelengths were 390 and 495 nm respectively. By comparing with the fluorescence intensity ratio of the control group ([…]), the percentage inhibition rate of the compound at each concentration was calculated.

[2] = system: E. coli ATCC 25922; assay: Antibacterial activity, MIC by broth microdilution (CLSI); format: cell-based; conditions: Escherichia coli, ATCC25922; E. coli ATCC 25922, 35° C., 18 to 24 hours; read-out: MIC(E. coli)
Procedure: The in vitro minimum inhibitory concentration (MIC) was determined in accordance with the CLSI guidelines, and was measured using the broth microdilution method.
The experimental process is briefly described as follows: The test compound was dissolved in DMSO to prepare a […] stock solution, which was then prepared into 11 twice-diluted 100× high-concentration working solutions (the final concentration of the system was 64 μg/mL-0.06 μg/mL) using DMSO. The strains (K. pneumoniae ATCC13883 and E. coli ATCC 25922) frozen in −80° C. glycerol were inoculated into solid agar medium, placed in an incubator at 35° C. for 18-24 hours of incubation. After the preparation of strains was completed, an appropriate amount of solid plate culture was collected, resuspended in physiological saline, and mixed well. The bacterial suspension was adjusted to a suitable turbidity using a turbidity meter, containing approximately 1×10^8 cfu/mL bacteria. Then the bacterial suspension with the adjusted turbidity was diluted to a bacterial concentration of 5×10^5 cfu/ml using the culture medium for measurement, to complete the preparation of the inoculum solution. 198 μL of the inoculum solution was inoculated into a 96-well plate, and then added with 2 μL of a 100× high-concentration working solution of the compound. Then the 96-well plate was placed at 35° C. for 18 to 24 hours of incubation.

[3] = recombinant P. aeruginosa LpxC 5 nM, substrate 10 μM, 25° C., 120 minutes, read-out: IC50

Compound	IC50 [1, 3]	MIC [2]	IC50 [1]
CCN(CC)CCNC(=O)c1ccc(C#Cc2ccc(-c3cc(Cn4ccnc4[C@H](C)O)no3)cc2)cc1 [Example 70, (S)-N-(2-(diethylamino)ethyl)-4-((4-(3-((2-(1-hydroxyethyl)-1H-imidazol-1-yl)methyl)isoxazol-5-yl)phenyl)ethynyl) benzamide]	12.9 nM	8 µg/mL (≈ 15.6 µM)	–
C[C@H](O)c1nccn1Cc1cc(-c2ccc(C#Cc3ccc(CN4CCOCC4C(=O)O)cc3)cc2)on1 (stereo partly drawn) [Example 20, 4-(4-((4-(3-((2-((S)-1-hydroxyethyl)-1H-imidazol-1-yl)methyl)isoxazol-5-yl)phenyl)ethynyl)benzyl)morpholin-3-carboxylic acid]	9.86 nM	4 µg/mL (≈ 7.8 µM)	–
C[C@H](O)c1nccn1Cc1cc(-c2ccc(C#Cc3ccc(N4CCOCC4)cc3)cc2)on1 [Example 5]	72.3 nM	1 µg/mL (≈ 2.2 µM)	–
C[C@H](O)c1nccn1Cc1cc(-c2ccc(C#Cc3ccc(CN4CCOC(C(=O)O)C4)cc3)cc2)on1 (stereo partly drawn) [Example 47, 4-(4-((4-(3-((2-((S)-1-hydroxyethyl)-1H-imidazol-1-yl)methyl)isoxazol-5-yl)phenyl)ethynyl)benzyl)morpholin-2-carboxylic acid]	–	8 µg/mL (≈ 15.6 µM)	11.1 nM
C[C@H](O)c1nccn1Cc1cc(-c2ccc(C#Cc3ccc(CN4CC(C(=O)O)C4)cc3)cc2)on1 [Example 95, (S)-1-(4-((4-(3-((2-(1-hydroxyethyl)-1H-imidazol-1-yl)methyl)isoxazol-5-yl)phenyl)ethynyl)benzyl)azetidin-3-carboxylic acid]	19.9 nM	8 µg/mL (≈ 16.6 µM)	–
C[C@H](O)c1nccn1Cc1cc(-c2ccc(C#Cc3cccc(OCC(=O)O)c3)cc2)on1 [Example 110, (S)-2-(3-((4-(3-((2-(1-hydroxyethyl)-1H-imidazol-1-yl)methyl)isoxazol-5-yl)phenyl)ethynyl)phenoxy)acetic acid]	11.2 nM	8 µg/mL (≈ 18 µM)	–
C[C@H](O)c1nccn1Cc1coc(-c2ccc(C#Cc3ccc(CN4CCC(O)CC4)cc3)cc2)n1 [Example 22, (S)-1-(4-((4-(4-((2-(1-hydroxyethyl)-1H-imidazol-1-yl)methyl)oxazol-2-yl)phenyl)ethynyl)benzyl)piperidin-4-ol]	98.9 nM	4 µg/mL (≈ 8.29 µM)	–
C[C@H](O)c1nccn1Cc1cc(-c2ccc(C#Cc3ccc(CN4CCOC(CC(=O)O)C4)cc3)cc2)on1 (stereo partly drawn) [Example 93, 2-(4-(4-((4-(3-((2-((S)-1-hy-droxyethyl)-1H-imidazol-1-yl)methyl)isoxazol-5-yl)phenyl)ethynyl)benzyl)morpholin-2-yl) acetic acid]	16.2 nM	8 µg/mL (≈ 15.2 µM)	–
C[C@H](O)c1nccn1Cc1cc(-c2ccc(C#Cc3cccc(C(=O)O)c3)cc2)on1 [Example 107, (S)-3-((4-(3-((2-(1-hydroxy-ethyl)-1H-imidazol-1-yl)methyl)isoxazol-5-yl)phenyl)ethynyl) benzoic acid]	16.3 nM	8 µg/mL (≈ 19.4 µM)	–
C[C@H](O)c1nccn1Cc1cc(-c2ccc(C#Cc3ccc(C(=O)NCCN(C)C)cc3)cc2)on1 [Example 71, (S)-N-(2-(dimethylamino)ethyl)-4-((4-(3-((2-(1-hydroxyethyl)-1H-imidazol-1-yl)methyl)isoxazol-5-yl)phenyl)ethynyl) benzamide]	24.2 nM	8 µg/mL (≈ 16.5 µM)	–
C[C@H](O)c1nccn1Cc1cc(-c2ccc(C#Cc3ccc(CNCC(=O)O)cc3)cc2)on1 [Example 99, (S)-(4-((4-(3-((2-(1-hydroxy-ethyl)-1H-imidazol-1-yl)methyl)isoxazol-5-yl)phenyl)ethynyl)benzyl)glycinate]	–	4 µg/mL (≈ 8.76 µM)	19.4 nM
C[C@H](O)c1nccn1Cc1cc(-c2ccc(C#Cc3ccc(C(=O)N4CCC(O)CC4)cc3)cc2)on1 [Example 67, (S)-(4-((4-(3-((2-(1-hydroxy-ethyl)-1H-imidazol-1-yl)methyl)isoxazol-5-yl)phenyl)ethynyl)phenyl)(4-hydroxypiperidin-1-yl)methanone]	10.4 nM	2 µg/mL (≈ 4.03 µM)	–
